Active and inactive are the calls of the source.
Columns and labels:
[1] = molecular target: Lysosomal acid glucosylceramidase (Homo sapiens, UniProt P04062); assay: Dose response cell-based high throughput screening assay to identify enhancers of beta-glucosidase activity. [Related pubchem assays: 784 ]; assay type: functional
[2] = molecular target: T1, Tyrosine-protein phosphatase non-receptor type 7 (Homo sapiens, UniProt P35236); assay type: functional
T1 sequence (P35236 whole entry): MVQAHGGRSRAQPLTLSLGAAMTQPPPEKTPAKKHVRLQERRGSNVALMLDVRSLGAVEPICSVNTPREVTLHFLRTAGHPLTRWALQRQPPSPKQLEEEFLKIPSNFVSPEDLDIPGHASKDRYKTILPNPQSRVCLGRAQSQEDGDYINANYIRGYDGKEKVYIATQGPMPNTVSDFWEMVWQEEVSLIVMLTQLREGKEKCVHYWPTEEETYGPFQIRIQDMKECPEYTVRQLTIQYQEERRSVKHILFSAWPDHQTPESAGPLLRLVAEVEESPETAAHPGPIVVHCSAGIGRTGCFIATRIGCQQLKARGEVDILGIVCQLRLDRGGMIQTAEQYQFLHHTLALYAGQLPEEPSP

[3] = molecular target: Glyceraldehyde-3-phosphate dehydrogenase (Homo sapiens, UniProt P04406)
[4] = molecular target: T2, Dual specificity protein phosphatase 6 (Rattus norvegicus, UniProt Q64346)
T2 sequence (Q64346 whole entry): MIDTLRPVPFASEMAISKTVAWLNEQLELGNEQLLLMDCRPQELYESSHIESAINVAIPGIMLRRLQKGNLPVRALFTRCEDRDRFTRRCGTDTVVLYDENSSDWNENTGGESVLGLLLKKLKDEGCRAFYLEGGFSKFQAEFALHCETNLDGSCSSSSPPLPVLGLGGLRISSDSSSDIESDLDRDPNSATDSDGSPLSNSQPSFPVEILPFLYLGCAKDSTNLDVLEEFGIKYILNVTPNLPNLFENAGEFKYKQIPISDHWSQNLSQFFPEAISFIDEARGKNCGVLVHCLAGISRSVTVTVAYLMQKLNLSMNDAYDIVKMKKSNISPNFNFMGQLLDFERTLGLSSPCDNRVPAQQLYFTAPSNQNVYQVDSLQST

[5] = molecular target: T2, Dual specificity protein phosphatase 6; assay type: functional
[6] = molecular target: Serine/threonine-protein phosphatase PP1-alpha catalytic subunit (Homo sapiens, UniProt P62136); assay: PP1 phosphatase inhibitors, dose response, biochemical, fluorescence (AID 2403);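 further: phosphatase turnover of OMFP into fluorescent 3-O-methylfluorescein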
[7] = molecular target: Serine/threonine-protein phosphatase (Homo sapiens, UniProt Q9BPW0); assay: Counterscreen for inhibitors of PP1: fluorescence-based biochemical high throughput dose response assay to identify inhibitors of Protein Phosphatase 5 (PP5). [Related pubchem assays: 2034 (Summary (PP5 inhibitors)), 1987 (PP5 inhibitors in singlate), 2235 (PP1 inhibitors in singlate)]
HEK293 [8] = assay: PMA/Ionomycin induced NF-kB luciferase assay in 293- NF-kB-Luc stable cells. [Related pubchem assays: 1299, 1270, 1295, 1375, 1287, 1281, 1293, 1291, 1289, 1280, 465, 1364, 1282, 1372, 1365, 1370, 1367, 1366, 1269, 1373, 1292, 1290, 1302, 1371, 1283, 1271, 1294, 1374, 1368, 1369 ]; assay type: functional, cell-based; conditions: Homo sapiens
[9] = molecular target: Luciferin 4-monooxygenase (Photinus pyralis, UniProt P08659); assay: In vitro luciferase assay using purified luciferase. [Related pubchem assays: 1299, 1270, 1295, 1375, 1287, 1281, 1293, 1291, 1289, 1280, 465, 1364, 1282, 1372, 1365, 1370, 1367, 1366, 1266, 1373, 1292, 1290, 1302, 1371, 1283, 1271, 1294, 1374, 1368, 1369 ]
HEK293 [10] = assay: PMA/Ionomycin-induced IL-8 production in HEK293- NF-kB-Luc stable cells. [Related pubchem assays: 1299, 1295, 1375, 1287, 1281, 1293, 1291, 1289, 1280, 465, 1364, 1282, 1372, 1365, 1367, 1366, 1266, 1269, 1373, 1292, 1290, 1302, 1371, 1283, 1271, 1294, 1374, 1368, 1369 ]; assay type: functional, cell-based; conditions: Homo sapiens
HEK293 [11] = assay: Cytotoxicity assay in HEK293 cells. [Related pubchem assays (depositor defined):AID1266, AID1269, AID1270, AID1271, AID1280, AID1281, AID1282, AID1283, AID1287, AID1289, AID1290, AID1291, AID1292, AID1293, AID1294, AID1295, AID1299, AID1302, AID1364, AID1365, AID1366, AID1367, AID1369, AID1370, AID1371, AID1372, AID1373, AID1374, AID1375, AID1384 …; assay type: functional, cell-based; conditions: Homo sapiens
HEK293 [12] = assay: TNF Induced NF-kB Luciferase in 293-NF-kB-Luc Stable Cells. [Related pubchem assays: 1266, 1299, 1269, 1373, 1292, 1290, 1302, 1371, 1283, 1270, 1295, 1271, 1375, 1294, 1374, 1281, 1293, 1291, 1289, 1280, 465, 1368, 1364, 1282, 1372, 1365, 1369, 1370, 1367, 1366 ]; assay type: functional, cell-based; conditions: Homo sapiens
HeLa = assay: HeLa cell cytotoxicity, dose response, cytotoxicity control, 24 h, cherry-picked samples (AID 504726); assay type: functional, cell-based; conditions: Homo sapiens;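 further: potency for cytotoxicity as loss of luminescence signal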

Chain of Glyceraldehyde-3-phosphate dehydrogenase (P04406 whole entry): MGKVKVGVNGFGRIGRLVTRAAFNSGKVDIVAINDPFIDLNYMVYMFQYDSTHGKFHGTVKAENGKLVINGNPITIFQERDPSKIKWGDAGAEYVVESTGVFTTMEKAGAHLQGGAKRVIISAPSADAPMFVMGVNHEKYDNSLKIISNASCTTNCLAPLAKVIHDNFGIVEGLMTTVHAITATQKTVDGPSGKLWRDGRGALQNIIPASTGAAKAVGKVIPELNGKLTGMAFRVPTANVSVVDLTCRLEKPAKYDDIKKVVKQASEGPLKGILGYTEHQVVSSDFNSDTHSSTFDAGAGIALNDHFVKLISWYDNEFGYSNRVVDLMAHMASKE
Chain of Luciferin 4-monooxygenase (P08659 whole entry): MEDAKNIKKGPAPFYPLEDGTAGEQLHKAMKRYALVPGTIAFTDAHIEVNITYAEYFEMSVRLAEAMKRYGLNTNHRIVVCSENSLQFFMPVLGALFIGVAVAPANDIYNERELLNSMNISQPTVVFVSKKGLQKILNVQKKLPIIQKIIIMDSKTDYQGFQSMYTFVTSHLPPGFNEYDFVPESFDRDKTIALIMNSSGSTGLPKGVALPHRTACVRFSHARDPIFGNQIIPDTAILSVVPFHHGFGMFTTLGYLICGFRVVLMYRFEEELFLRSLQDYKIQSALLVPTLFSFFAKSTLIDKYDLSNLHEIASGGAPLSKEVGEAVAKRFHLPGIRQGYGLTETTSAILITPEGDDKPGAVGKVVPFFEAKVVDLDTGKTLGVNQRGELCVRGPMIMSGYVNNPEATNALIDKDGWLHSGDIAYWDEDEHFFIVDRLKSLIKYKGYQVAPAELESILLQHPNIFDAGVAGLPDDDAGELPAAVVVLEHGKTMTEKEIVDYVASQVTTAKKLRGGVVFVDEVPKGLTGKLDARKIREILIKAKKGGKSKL
Chain of Serine/threonine-protein phosphatase PP1-alpha catalytic subunit (P62136 whole entry): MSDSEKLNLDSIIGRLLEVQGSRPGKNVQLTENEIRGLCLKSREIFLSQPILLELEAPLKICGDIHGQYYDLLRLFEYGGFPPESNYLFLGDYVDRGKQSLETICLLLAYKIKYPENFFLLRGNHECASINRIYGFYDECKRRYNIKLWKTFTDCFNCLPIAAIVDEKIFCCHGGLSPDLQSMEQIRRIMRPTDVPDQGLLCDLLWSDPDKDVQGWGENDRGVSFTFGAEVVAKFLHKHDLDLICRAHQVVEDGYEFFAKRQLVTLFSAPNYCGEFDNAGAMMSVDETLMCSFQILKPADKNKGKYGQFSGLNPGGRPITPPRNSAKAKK
Chain of Serine/threonine-protein phosphatase (Q9BPW0 whole entry): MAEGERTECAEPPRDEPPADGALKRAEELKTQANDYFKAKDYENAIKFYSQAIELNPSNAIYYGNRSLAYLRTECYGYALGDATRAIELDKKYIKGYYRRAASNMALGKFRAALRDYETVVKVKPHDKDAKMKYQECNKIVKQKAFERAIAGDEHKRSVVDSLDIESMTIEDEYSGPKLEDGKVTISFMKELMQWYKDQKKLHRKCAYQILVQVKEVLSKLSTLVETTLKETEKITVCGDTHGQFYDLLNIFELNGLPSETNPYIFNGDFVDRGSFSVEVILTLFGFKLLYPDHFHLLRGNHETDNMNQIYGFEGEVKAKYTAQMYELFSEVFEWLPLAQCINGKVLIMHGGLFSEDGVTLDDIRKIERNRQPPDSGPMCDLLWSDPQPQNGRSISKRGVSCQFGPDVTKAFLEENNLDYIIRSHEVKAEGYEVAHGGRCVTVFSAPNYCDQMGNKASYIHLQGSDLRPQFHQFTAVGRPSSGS
Chain of Lysosomal acid glucosylceramidase (P04062 whole entry): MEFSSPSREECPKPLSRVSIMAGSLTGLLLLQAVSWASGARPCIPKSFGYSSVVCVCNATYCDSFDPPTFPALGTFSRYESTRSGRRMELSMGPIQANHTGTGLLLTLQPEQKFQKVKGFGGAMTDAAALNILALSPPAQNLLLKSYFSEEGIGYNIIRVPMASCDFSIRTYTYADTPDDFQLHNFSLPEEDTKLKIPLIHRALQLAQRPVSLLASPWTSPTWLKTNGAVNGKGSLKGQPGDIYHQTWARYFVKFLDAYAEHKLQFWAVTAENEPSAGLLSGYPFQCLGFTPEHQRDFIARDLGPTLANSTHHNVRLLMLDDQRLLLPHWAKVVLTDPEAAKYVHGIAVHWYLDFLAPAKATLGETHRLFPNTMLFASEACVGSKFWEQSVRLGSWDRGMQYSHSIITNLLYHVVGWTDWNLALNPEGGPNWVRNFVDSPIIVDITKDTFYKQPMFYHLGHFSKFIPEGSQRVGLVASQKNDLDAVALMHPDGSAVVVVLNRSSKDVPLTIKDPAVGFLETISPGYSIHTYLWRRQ

In the case of `CCOC(=O)c1oc2c(C)c(O)ccc2c(=O)c1-c1nncn1-c1ccccc1`, the EC50 [1] is reported as > 50 µM (not active).

For `CCn1c(=O)n(CC)c(=O)n([C@@H](Cc2ccccc2)C(=O)O)c1=O`, the IC50 [2] was > 100 µM (not active), the IC50 [3] was > 100 µM (not active) and the IC50 [4] was > 100 µM (inactive). The IC50 [5] was > 100 µM (inactive).

In the case of `O=C(O)C1C2CCC(O2)C1C(=O)NC1CCCCC1` (stereo not drawn), the IC50 [6] is reported as 3.7 µM (active) and the IC50 [7] is reported as 3.03 µM (active).

With `CN(C)c1ncnc2c1ncn2[C@@H]1OC(CO)C(O)C1O` (stereo partly drawn) the EC50 (HEK293 [8]) was 1.85 µM (active), the EC50 [9] was > 8 µM (not active) and the EC50 (HEK293 [10]) was > 8 µM (not active). For the same compound, the EC50 (HEK293 [11]) was 12.2 µM (inactive) and the EC50 (HEK293 [12]) was > 8 µM (not active).

`Brc1ccc(-c2noc(COc3ccc4c(c3)CCC4)n2)o1` was tested, and the AC50 (HeLa) was 337 µM (active).

— ChEMBL document CHEMBL1201862, “PubChem BioAssay data set” (2004)
